Inconclusive results and toxic doses are left out. Cut-off read from the data, not from the text of the source: active = T/C of 150% or more; inactive = T/C below 125%.
Tested on: L1210 leukemia ip in BDF1 mice, survival T/C
Experiment: NCI In Vivo Anticancer Drug Screen. Data for tumor model L1210 Leukemia (intraperitoneal) in B6D2F1 (BDF1) mice
Settings: endpoint: mean survival time, higher = longer survival
Summary of the method: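 Ratio derived from survival: compound-dosed mice over vehicle-dosed mice, all bearing a transplantable tumor.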

[1] = dose: 75.0 mg/kg/injection, schedule: Q01DX001 (ip), vehicle: saline
[2] = dose: 100.0 mg/kg/injection, schedule: Q01DX001 (ip), vehicle: saline
[3] = dose: 200.0 mg/kg/injection, schedule: Q01DX001 (ip), vehicle: saline
[4] = dose: 400.0 mg/kg/injection, schedule: Q01DX001 (ip), vehicle: saline
[5] = dose: 100.0 mg/kg/injection, schedule: Q04DX003 (ip), vehicle: Klucel (hydroxypropylcellulose) (HPC)
[6] = dose: 200.0 mg/kg/injection, schedule: Q04DX003 (ip), vehicle: Klucel (hydroxypropylcellulose) (HPC)
[7] = dose: 400.0 mg/kg/injection, schedule: Q04DX003 (ip), vehicle: Klucel (hydroxypropylcellulose) (HPC)
[8] = dose: 3.0 mg/kg/injection, schedule: Q01DX009 (ip), vehicle: saline
[9] = dose: 6.0 mg/kg/injection, schedule: Q01DX009 (ip), vehicle: saline
[10] = dose: 12.0 mg/kg/injection, schedule: Q01DX009 (ip), vehicle: saline
[11] = dose: 24.0 mg/kg/injection, schedule: Q01DX009 (ip), vehicle: saline
[12] = dose: 100.0 mg/kg/injection, schedule: Q04DX002 (ip), vehicle: Klucel (hydroxypropylcellulose) (HPC)
[13] = dose: 200.0 mg/kg/injection, schedule: Q04DX002 (ip), vehicle: Klucel (hydroxypropylcellulose) (HPC)
[14] = dose: 400.0 mg/kg/injection, schedule: Q04DX002 (ip), vehicle: Klucel (hydroxypropylcellulose) (HPC)
[15] = dose: 100.0 mg/kg/injection, schedule: Q04DX003 (ip), vehicle: saline with Tween-80
[16] = dose: 400.0 mg/kg/injection, schedule: Q04DX003 (ip), vehicle: saline with Tween-80
[17] = dose: 100.0 mg/kg/injection, schedule: Q01DX009 (ip), vehicle: Klucel (hydroxypropylcellulose) (HPC)
[18] = dose: 200.0 mg/kg/injection, schedule: Q01DX009 (ip), vehicle: Klucel (hydroxypropylcellulose) (HPC)
[19] = dose: 400.0 mg/kg/injection, schedule: Q01DX009 (ip), vehicle: Klucel (hydroxypropylcellulose) (HPC)

Measured: T/C

CC(=O)CC(=O)Nc1ccc(C(=O)c2ccccc2)cc1
inactive: dose: 37.5 mg/kg/injection, schedule: Q01DX009 (ip), vehicle: saline 98 % of control | dose: 75.0 mg/kg/injection, schedule: Q01DX001 (ip), vehicle: acetone 87 % of control | [1] 95 % of control | dose: 75.0 mg/kg/injection, schedule: Q01DX009 (ip), vehicle: saline 93 % of control | dose: 150.0 mg/kg/injection, schedule: Q01DX001 (ip), vehicle: saline 98 % of control | dose: 150.0 mg/kg/injection, schedule: Q01DX009 (ip), vehicle: saline 107 % of control | dose: 300.0 mg/kg/injection, schedule: Q01DX001 (ip), vehicle: acetone 98 % of control | dose: 300.0 mg/kg/injection, schedule: Q01DX001 (ip), vehicle: saline 90 % of control

CCC(=O)CCC1CCCCC1
inactive: [2] 94 % of control | [3] 100 % of control | [4] 91 % of control

CCCCOC(=O)CC1CCCN1C (stereo not given)
inactive: dose: 100.0 mg/kg/injection, schedule: Q04DX003 (ip), vehicle: saline 110 % of control | dose: 200.0 mg/kg/injection, schedule: Q04DX003 (ip), vehicle: saline 101 % of control

COc1ccc(OC)c(NC(=O)Nc2ccccc2C(N)=O)c1
inactive: [5] 97 % of control | [6] 95 % of control | [7] 93 % of control

CCCCCCC(=O)N(CC)CC
inactive: dose: 100.0 mg/kg/injection, schedule: Q04DX002 (ip), vehicle: saline 94 % of control | dose: 200.0 mg/kg/injection, schedule: Q04DX002 (ip), vehicle: saline 98 % of control | dose: 400.0 mg/kg/injection, schedule: Q04DX002 (ip), vehicle: saline 91 % of control

NC1C(O)C(O)C(Nc2ncnc3nc[nH]c23)OC1C(O)CO (stereo not given)
inactive: dose: 0.44 mg/kg/injection, schedule: Q## X000 (ip), vehicle: carboxymethylcellulose (CMC) 98 % of control | dose: 0.66 mg/kg/injection, schedule: Q## X000 (ip), vehicle: carboxymethylcellulose (CMC) 100 % of control | dose: 1.0 mg/kg/injection, schedule: Q## X000 (ip), vehicle: carboxymethylcellulose (CMC) 100 % of control | dose: 1.5 mg/kg/injection, schedule: Q01DX009 (ip), vehicle: saline 104 % of control | dose: 1.5 mg/kg/injection, schedule: Q## X000 (ip), vehicle: carboxymethylcellulose (CMC) 100 % of control | dose: 3.0 mg/kg/injection, schedule: Q01DX001 (ip), vehicle: saline 107 % of control | [8] 103 % of control | dose: 6.0 mg/kg/injection, schedule: Q01DX001 (ip), vehicle: saline 107 % of control | [9] 101 % of control | dose: 12.0 mg/kg/injection, schedule: Q01DX001 (ip), vehicle: saline 107 % of control | [10] 98 % of control | dose: 24.0 mg/kg/injection, schedule: Q01DX001 (ip), vehicle: saline 104 % of control | [11] 101 % of control | dose: 35.0 mg/kg/injection, schedule: Q01DX009 (ip), vehicle: saline 95 % of control | dose: 48.0 mg/kg/injection, schedule: Q01DX001 (ip), vehicle: saline 103 % of control | dose: 55.0 mg/kg/injection, schedule: Q01DX009 (ip), vehicle: saline 97 % of control | [1] 96 % of control | dose: 80.0 mg/kg/injection, schedule: Q01DX009 (ip), vehicle: saline 97 % of control | dose: 110.0 mg/kg/injection, schedule: Q01DX001 (ip), vehicle: saline 98 % of control | dose: 165.0 mg/kg/injection, schedule: Q01DX001 (ip), vehicle: saline 101 % of control | dose: 245.0 mg/kg/injection, schedule: Q01DX001 (ip), vehicle: saline 95 % of control | dose: 370.0 mg/kg/injection, schedule: Q01DX001 (ip), vehicle: saline 103 % of control

CC(C)=NOC(=O)N(C)C
inactive: [2] 93 % of control | [3] 96 % of control | [4] 91 % of control

CC(=O)OC(C)C(=O)C1=C2CCCN2CCc2cc3c(cc21)OCO3 (stereo not given)
inactive: [12] 103 % of control | [13] 103 % of control | [14] 103 % of control

NNC(=O)c1cc2c3ccccc3ncc2c2ccccc12
inactive: [15] 86 % of control | dose: 200.0 mg/kg/injection, schedule: Q04DX003 (ip), vehicle: saline with Tween-80 94 % of control | [16] 108 % of control

CCOC(=O)c1c(-c2ccc([N+](=O)[O-])cc2)cn(-c2ccccc2)c1C
inactive: [12] 91 % of control | [13] 97 % of control | [14] 87 % of control

CCOC(=O)NNC(N)=S
inactive: [17] 102 % of control | [5] 103 % of control | [18] 97 % of control | [6] 94 % of control | [19] 98 % of control | [7] 100 % of control

CC1CCC2(C)CCC3(C)C4=CCC5C(C)(C)C(O)CCC5(C)C4CCC3(C)C2C1C (stereo not given)
inactive: dose: 200.0 mg/kg/injection, schedule: Q01DX009 (ip), vehicle: saline 87 % of control | dose: 400.0 mg/kg/injection, schedule: Q01DX009 (ip), vehicle: saline 96 % of control

CCS(=O)(=O)C1CCC1OC(C)(C)C (stereo not given)
inactive: [2] 108 % of control | [3] 108 % of control | [4] 102 % of control

CCOC(=O)CC(=Nc1ccccc1OC)C(=O)OCC
inactive: [17] 97 % of control | [5] 105 % of control | [18] 98 % of control | [6] 98 % of control | [19] 91 % of control | [7] 107 % of control

CCOC=Nc1c(C)c[n+]([O-])nc1OC
inactive: dose: 12.5 mg/kg/injection, schedule: Q04DX002 (ip), vehicle: saline 102 % of control | dose: 25.0 mg/kg/injection, schedule: Q04DX002 (ip), vehicle: saline 102 % of control | dose: 50.0 mg/kg/injection, schedule: Q04DX002 (ip), vehicle: saline 98 % of control

COC1C(O)C(C)OC(OC2CC3CCC4C(CCC5(C)C(C6=CC(=O)OC6)CCC45O)C3(C)C(OC(C)=O)C2)C1O (stereo not given) (tested in a mixture with another compound)
inactive: dose: 25.0 mg/kg/injection, schedule: Q01DX009 (sc), vehicle: steriod suspending solution 101 % of control

O=C(/C=C/C=C/c1ccccc1)c1ccc(Cl)cc1
inactive: dose: 100.0 mg/kg/injection, schedule: Q01DX009 (ip), vehicle: saline with Tween-80 97 % of control | [15] 95 % of control | dose: 200.0 mg/kg/injection, schedule: Q01DX009 (ip), vehicle: saline with Tween-80 92 % of control | dose: 400.0 mg/kg/injection, schedule: Q01DX009 (ip), vehicle: saline with Tween-80 95 % of control | [16] 96 % of control

NC(N)=N/N=C/c1ccc(Cl)c([N+](=O)[O-])c1
inactive: dose: 6.0 mg/kg/injection, schedule: Q01DX Z (oral), vehicle: methylcellulose (MC) 93 % of control | dose: 15.0 mg/kg/injection, schedule: Q01DX Z (oral), vehicle: methylcellulose (MC) 115 % of control | dose: 30.0 mg/kg/injection, schedule: Q01DX Z (oral), vehicle: methylcellulose (MC) 109 % of control | dose: 120.0 mg/kg/injection, schedule: Q01DX Z (oral), vehicle: methylcellulose (MC) 96 % of control

Cc1n[nH]c(=O)[nH]c1=O
inactive: [8] 95 % of control | [9] 93 % of control | [10] 93 % of control | [11] 93 % of control | dose: 48.0 mg/kg/injection, schedule: Q01DX009 (ip), vehicle: saline 97 % of control | dose: 67.5 mg/kg/injection, schedule: Q01DX Z (ip), vehicle: saline 96 % of control | dose: 125.0 mg/kg/injection, schedule: Q01DX Z (ip), vehicle: saline 105 % of control | dose: 200.0 mg/kg/injection, schedule: Q01DX001 (ip), vehicle: acetone 97 % of control | dose: 250.0 mg/kg/injection, schedule: Q01DX Z (ip), vehicle: saline 96 % of control | dose: 400.0 mg/kg/injection, schedule: Q01DX001 (ip), vehicle: acetone 103 % of control | dose: 500.0 mg/kg/injection, schedule: Q01DX Z (ip), vehicle: saline 105 % of control | dose: 800.0 mg/kg/injection, schedule: Q01DX001 (ip), vehicle: acetone 98 % of control
